Consider two compounds from ChEMBL document CHEMBL1122882, “3,4-O-diacetylisoproterenol. Preparation, structure proof, and beta-receptor effect” (1985).

For the assay, the species on record is Rattus norvegicus. The assay is described as follows: Evaluated for the efficacy in stimulating cAMP synthesis by beta-1-adrenoceptor in rat cerebral cortex. The assay is classed as functional.

`CC(=O)Oc1ccc(C(Cl)CNC(C)C)cc1OC(C)=O` (configuration not stated) registered an Efficacy of 1. As for `CC(=O)Oc1ccc(C(O)CNC(C)C)cc1OC(C)=O` (configuration not stated) [DIACETYLISOPROTERENOL], the figure is 1.
